{
  "source": "patent EP1566447A1",
  "about": "“Glimepiride- and insulin-induced glycosylphosphatidylinositol-specific phospholipase C regulation” (priority 2004, dated 2005)",
  "key": {"rat adipocytes": {"system": "rat adipocytes", "experiment": "isoproterenol-induced lipolysis (glycerol release)", "format": "cell-based", "procedure": "Electroporation was performed as described in \"Müller, G. et al., (2000) Mol. Cell. Biol. 20: 4708-4723\". Lipolysis was determined as release of glycerol or fluorescent NBD-FA from prelabeled and isoproterenol-stimulated adipocytes as described in \"Müller, G. et al., (2003) Biochimie 85: 1245-1256\". Gce1 was detected by photolabeling of solubilized plasma membranes or hc/IcDIGs (10-50 µg protein) with 8-N3-[^32P]cAMP and subsequent phosphorimaging as described in \"Müller, G. et al., (1994) Biochemistry 33: 12149-12159\". 5'-Nuc, aP and AChE activities were measured according to \"Eliakim, R. et al., (1990) Biochim. Biophys. Acta 1355: 293-302\". Protein was determined using the BCA protein determination kit from Pierce (Rockford, IL) and BSA as calibration standard. SDS-PAGE was performed using precast gels (Novex, San Diego, CA; 10 % Bis-Tris resolving gel, morpholinopropanesulfonic acid-SDS running buffer). Lumiimages were evaluated on a Lumilmager using Lumilmager software (Roche Diagnostics). Phosphor- and fluorescence images were processed and quantified using the Storm 860 Phosphorlmager system (Molecular Dynamics, Gelsenkirchen, Germany). Figures were constructed using the Adobe Photoshop software (Adobe Systems, Mountain View, CA).\nFig. 8: Effect of GPI-2350 on the glimepiride/insulin-induced metabolic activity. Isolated rat adipocytes were treated (5 min, 37°C) without or with GPI-2350 (Panel A, 50 µM; Panel B, increasing conc.; Panel C, 5 µM, 50 µM) and then incubated (15 min, 37°C) in the absence or presence of insulin (Ins, 10 nM) or glimepiride (Gli, 20 µM or increasing conc.) as indicated. The adipocytes were then assayed for glucose transport and isoproterenol-induced lipolysis. The activity is given relative to the absence of GPI-2350 in the control reaction (Panels A, basal) or in the insulin- and glimepiride-stimulated state (Panels B and C, set at 100). Means ± SD of at least 5 independent cell incubations with activity measurements in triplicate each are given."}, "caveolin-1": {"system": "caveolin-1", "experiment": "dissociation of signaling proteins from caveolin (caveolin-1 immunoprecipitates)", "format": "cell-based, rat", "procedure": "Solubilized DIGs (see above, 5-20 µg protein) were precleared by incubation with protein A/G-Sepharose and subsequent centrifugation (10,000xg, 5 min). The supernatant was incubated with anti-caveolin-1 antibodies (1:1000) preadsorbed on protein A/G-Sepharose in 1 ml of 10 mM Tris/HCl (pH 7.4), 150 mM NaCl, 1 % TX-100 for 1 h at 4°C. The immune complexes were washed twice with the same buffer and then twice with buffer lacking TX-1 00 and finally subjected to SDS-PAGE performed in the absence of β-mercaptoethanol. The recovery of immunoprecipitated caveolin was normalized by homologous immunoblotting with anti-caveolin antibodies of the same blot following stripping of the membrane.\nPolypeptides separated by SDS-PAGE were transferred to polyvinylidene difluoride membranes using the semidry procedure as described in \"Müller, G. et al., (2001) Mol. Cell. Biol. 21: 4553-4567\". Washed membranes were incubated anti-caveolin-1 (1:2000), anti-pp59^Lyn (1:1250), anti-aP (1:500), anti-5'-Nuc (1:750) and anti-IRS-1 (1:2000) antibodies for 4 h at 15°C. Washed membranes were incubated with horseradish peroxidase-coupled secondary goat anti-mouse (1:2000) or goat anti-rabbit IgG (1:4000) antibodies. Labeled proteins were visualized by enhanced chemiluminescence.\nOf signaling proteins from caveolin. […]"}, "[1]": {"experiment": "stability of the compound in solvents and as a solid", "format": "physicochemical", "procedure": "As starting material, racemic 1,4,5,6-tetra-O-benzyl-myo-inositol (thereinafter: compound 1) was prepared by a procedure as disclosed in \"Zhai, H.-X. et al. (1995) Tetrahedron Lett. 36: 7403-7406\". Compound 1 was then phosphorylated with dodecylphosphonic dichloride in the presence of triethylamine and dimethyl-aminopyridine to yield tetra-O-benzyl-myo-inositol-1,2-cyclo-dodecylphosphonic acid (thereinafter: compound 2). By catalytic hydrogenation with 10% Pd on charcoal compound 2 was debenzylated to myo-inositol-1,2-cyclo-dodecylphosphonic acid (thereinafter: compound 3 or GPI-2350) as a mixture of diastereomeres. For synthesis of compound 2 (Fig. 1), 1 g (1.8 mmol) of compound 1 was dissolved in 60 ml of methylene chloride and 1 ml of triethylamine, 200 mg dimethyl-aminopyridine and 1 g ([…]) of dodecylphosphonic dichloride were added. This reaction solution was allowed to stand (45 min, room temperature). Then 50 ml of ethyl acetate were added and the mixture was filtrated on silical gel. After concentration of the solvent, the residue was purified by flash chromatography (n-heptane/ethyl acetate, 1/1, by vol.). Yield of compound 2: 580 mg (43 %) of a white amorphous solid. TLC: n-heptane/ethyl acetate (1/1, by vol.), Rf = 0.7. MS: (M + Li)^+ = 761.4, calculated […], M = 754.9. […] MS: (M + Li)^+ = 401.2, calculated C18H35O7P, M = 394.4."}},
  "note": "“Also recorded” adds a separate entry of the source.",
  "data": [
    {"smiles": "CCCCCCCCCCCCP1(=O)O[C@@H]2[C@H](O)[C@@H](O)[C@H](O)[C@@H](O)[C@@H]2O1", "note": "(mixture of isomers) [GPI-2350, myo-inositol-1,2-cyclo-dodecylphosphonic acid]", "values": [
      {"measurement": "effect on inhibition of lipolysis in response to glimepiride", "setting": "rat adipocytes; 50 µM", "result": "almost complete blockade; also recorded: lower than control values"},
      {"measurement": "IC50", "setting": "rat adipocytes; Rattus norvegicus, Adipocyte", "result": "2 to 5", "unit": "µM"},
      {"measurement": "inhibition at 50 µM", "setting": "rat adipocytes; Rattus norvegicus, Adipocyte, 50 µM, insulin 10 nM, read-out: reduction of insulin inhibition of isoproterenol-induced lipolysis", "result": "≤ 33", "unit": "%"},
      {"measurement": "effect on induced dissociation of pp59^Lyn and Gce1 from caveolin", "setting": "caveolin-1; 50 µM, Fig. 6 Panel A", "result": "almost complete blockade; also recorded: completely abrogated"},
      {"measurement": "IC50", "setting": "caveolin-1; abrogation of insulin- and glimepiride-induced losses, Fig. 6 Panel B", "result": "5 to 10", "unit": "µM"},
      {"measurement": "stability in acidic vs. basic solvents", "setting": "[1]", "result": "less stable in acidic than basic solvents"},
      {"measurement": "stability in methanol", "setting": "[1]; methanol", "result": "for days"}
    ]}
  ]
}
